Assays:
MCF-7 cells [1] = assay: Wound healing assay, MCF-7; type: cell-based, human; conditions: IC50 concentration, observed for 72 h
Protocol: This experiment consisted in making a “wound” in a confluent monolayer of HCT-116 and MCF-7 cells, which were next treated with the test compounds at their IC50 concentrations. […] In the control, cell migration from the edges of the wound is visible, gradually filling the gap. After 72 h, the wounds are almost completely covered with cells. In the same way, cell migration is observed in healthy NHDF cells.
To analyze the migration properties of cells exposed to test compounds, a wound-healing assay was performed as reported in the literature. The cells were seeded into 6-well plates at a density of 3 × 10^5 (HCT-116) or 4 × 10^5 (MCF-7, NHDF-Neo) per well (3 mL) and allowed to attach for 24 h under standard conditions with 5% CO2 at 37 °C. After forming a confluent monolayer, a linear scratch in each sample with a 200 µL pipette tip was made and the first photo at time zero was taken. The cells were washed with PBS and then treated with solutions of test compounds in a fresh medium at a dose equal to their IC50 values. Control cells were grown with fresh medium supplemented with 0.5% DMSO. The cells were incubated and monitored for 72 h under standard conditions with 5% CO2 at 37 °C. Cell monitoring and photos were taken using Live Cell Movie Analyzer, JuLI™ Br & FL (NanoEnTek Inc., Seoul, Korea).

HCT-116 cells = assay: Annexin V-FITC/PI apoptosis flow cytometry, HCT-116; type: cell-based, human; conditions: IC50 dose, 24 h
Source text: (§1) Apoptosis is a natural biological process involving programmed cell death and plays an important role in maintaining correct homeostasis between cell proliferation and cell death. This is in contrast to necrosis, which is accompanied by acute inflammation, preceded by cell degradation due to the loss of the integrity of the cell membrane. It is possible to distinguish viable cells from apoptotic and necrotic cell fractions using Annexin V-FITC and Propidium Iodide (PI). Annexin V-FITC labels phosphatidylserine residues that, after the start of apoptosis, are located on the outer surface of the cell membrane, enabling the identification of cells in the early stages of apoptosis. PI binds stoichiometrically to intracellular DNA during late apoptosis and necrosis when the cell membrane has been damaged. This combination allows for the differentiation of early apoptotic (A+/P−), late apoptotic (A+/P+), necrosis (A−/P+), and normal (A−/P−) cells that can be quantified by flow cytometry.
(§2) The cell cycle and the type of cell death induced by the test compounds were measured by using flow cytometry according to the manufacturer’s protocol. […] Control cells were grown with fresh medium supplemented with 0.5% DMSO. After 24 h of incubation, the cells were collected by trypsinization. Then, samples were centrifuged (3 min, 2000 rpm, RT) and washed with PBS, after which the cells were centrifuged again (3 min, 2000 rpm, RT) and the supernatant was carefully removed. The resulting precipitate contained cells, which were used for flow cytometry experiments.
(§3) The fraction of dead cells after treatment with the test compounds were detected using the FITC Annexin-V Apoptosis Detection Kit with PI (BioLegend, San Diego, CA, USA). […] 250 μL of the Annexin-V Binding Buffer was then added and the samples were incubated in the dark on ice for 15 min.

MCF-7 cells [2] = assay: Annexin V-FITC/PI apoptosis flow cytometry, MCF-7; type: cell-based, human; conditions: IC50 dose, 24 h
Source text: as §1, §2, §3

NHDF-Neo cells = assay: Annexin V-FITC/PI apoptosis flow cytometry, NHDF-Neo; type: cell-based; conditions: IC50 dose, 24 h
Source text: as §1, with “This is important information from the point of view of drug design, as it provides detailed information on the cytotoxicity of a compound. Apoptosis” for “Apoptosis”, “cytometry. The experiments were performed on the HCT-116 and MCF-7 cancer cell lines and the NHDF-Neo healthy cell line. […] The results of the level of apoptosis induction by the tested compounds are presented in Figure 7 and in the Supplementary Materials (Figure S73).” for “cytometry.”
The cell cycle and the type of cell death induced by the test compounds were measured by using flow cytometry according to the manufacturer’s protocol. The cells were seeded into 6-well plates at a density of 3 × 10^5 (HCT-116) or 4 × 10^5 (MCF-7, NHDF-Neo) per well (3 mL) and allowed to attach for 24 h under standard conditions with 5% CO2 at 37 °C. The following day, the medium was removed and cells were treated with solutions of test compounds in fresh medium at a dose equal to their IC50 values. Control cells were grown with fresh medium supplemented with 0.5% DMSO. After 24 h of incubation, the cells were collected by trypsinization. Then, samples were centrifuged (3 min, 2000 rpm, RT) and washed with PBS, after which the cells were centrifuged again (3 min, 2000 rpm, RT) and the supernatant was carefully removed. The resulting precipitate contained cells, which were used for flow cytometry experiments.
The fraction of dead cells after treatment with the test compounds were detected using the FITC Annexin-V Apoptosis Detection Kit with PI (BioLegend, San Diego, CA, USA). First, cells were suspended in 50 μL of cold Annexin-V Binding Buffer (BioLegend, San Diego, CA, USA) and incubated in the dark with 2.5 μL of antibody Annexin-V FITC and 10 μL of propidium iodide (PI) at 37 °C for 20 min. 250 μL of the Annexin-V Binding Buffer was then added and the samples were incubated in the dark on ice for 15 min. Cytometric analyses were performed using an Aria III flow cytometer (Becton Dickinson, Franklin Lakes, NJ, USA) with the FITC configuration (488 nm excitation; emission: LP mirror 503, BP filter 530/30) or PE configuration (547 nm excitation; emission: 585 nm) and at least 10,000 cells were counted.

Row | Compound | cell migration, MCF-7 (MCF-7 cells [1]) | apoptotic cells, HCT-116 (HCT-116 cells) [%] | apoptotic cells, MCF-7 (MCF-7 cells [2]) [%] | normal cells remained, NHDF-Neo (NHDF-Neo cells) [%] | dead cell fraction, NHDF-Neo (NHDF-Neo cells) [%] | apoptosis induction in words, HCT-116 (HCT-116 cells) | apoptosis induction in words, MCF-7 (MCF-7 cells [2]) | cells in late apoptosis, NHDF-Neo (NHDF-Neo cells) [%] | necrotic cells, NHDF-Neo (NHDF-Neo cells) [%]
1 | CC(=O)OC1O[C@H](Cn2cc(COc3cccc4cccnc34)nn2)[C@@H](OC(C)=O)[C@H](OC(C)=O)[C@H]1OC(C)=O (some centres unmarked) [Compound A-1] | significantly slower migration | 29 | 35 | 98 | – | – | – | – | –
2 | OC1O[C@H](Cn2cc(COc3cccc4cccnc34)nn2)[C@@H](O)[C@H](O)[C@H]1O (some centres unmarked) [Compound A-2] | significantly slower migration | 46 | 39 | 95 | – | – | – | – | –
3 | O[C@@H]1[C@@H](O)[C@@H](O[C@H]2O[C@H](Cn3cc(COc4cccc5cccnc45)nn3)[C@@H](O)[C@H](O)[C@H]2O)O[C@H](Cn2cc(COc3cccc4cccnc34)nn2)[C@H]1O [Compound D-2] | – | 87 | 70 | – | 51 | – | – | – | –
4 | CC(=O)OC[C@H]1O[C@@H](n2cc(COc3cccc4cccnc34)nn2)[C@H](OC(C)=O)[C@@H](OC(C)=O)[C@@H]1OC(C)=O [Compound E-1, reference compound] | – | – | – | – | – | did not induce apoptosis | did not induce apoptosis | 61 | 14
5 | OC[C@H]1O[C@@H](n2cc(COc3cccc4cccnc34)nn2)[C@H](O)[C@@H](O)[C@@H]1O [Compound E-2, reference compound] | – | – | – | – | – | – | – | 57 | 9
